Assay results from patent US12558342B2, “2-[2-({12,12-dimethyl-4-oxo-6-phenyl-3,11-dioxatricyclo[8.4.0.0,2,7]tetradeca-1,5,7,9-tetraen-8-yl}oxy)acetamido]benzamide and derivatives as inhibitor of clock:bmal1 interaction for the treatment of circadian rhythm diseases and disorders” (KOC UNIVERSITESI, priority 2019, dated 2026).

What was measured:
[1] = test system: Bmal1::dluc U2OS cells; test: Real-time monitoring of circadian rhythm, Bmal1::dluc U2OS; format: cell-based, human
Protocol: We used Bmal1::dluc U2-OS and Per1::dluc NIH 3T3, and continuously monitored the bioluminescence to record circadian rhythm. This experiment was performed in 96-well plates (triplicates) and 35-mm dishes (duplicates) in the secondary screen and detailed characterization steps respectively. Briefly, cells were seeded to reach confluency. A day after, the medium was replaced with DMEM containing 0.1 μM Dexamethasone to synchronize cells. Two hour later, 0.1 mM of Luciferin was freshly added to the recording medium (low glucose DMEM powder (with L-glutamine) supplemented with 10 mM HEPES, […] sodium bicarbonate, 3.5 mg/ml D-(+)-glucose powder, 5% FBS, 0.1 mM NEAA, 100 U/ml penicillin and […]). Then, the medium was replaced with recording medium containing appropriate amount of each compound. Control cells were treated with 0.5% vehicle (DMSO). For a detailed characterization of CLK8, whenever required, and without any further medium change, small molecule treatment was postponed to two days after bioluminescence recording started. The 96-well plates were covered and bioluminescence was monitored by Synergy H1 Hybrid Multi-Mode Reader every 32 minutes. Similarly, we sealed the 35-mm plates with vacuum grease prior to mounting them on a LumiCycle luminometer (Actimetrics). Bioluminescence was recorded every 10 minutes for 4-6 days. Raw data (counts/sec) were plotted against time. The period and amplitude parameters were obtained using LumiCycle Analysis software (Actimetrics). First, the raw data was baseline fitted (n=1), and then the baseline-subtracted data was fitted to a sine wave (damped). The first day's data was excluded from the analysis due to transient perturbations of luminescence after the medium change.
(§1) We used Bmal1::dluc U2-OS and Per1::dluc NIH 3T3, and continuously monitored the bioluminescence to record circadian rhythm. This experiment was performed in 96-well plates (triplicates) and 35-mm dishes (duplicates) in the secondary screen and detailed characterization steps respectively. Briefly, cells were seeded to reach confluency. A day after, the medium was replaced with DMEM containing 0.1 μM Dexamethasone to synchronize cells. Two hour later, 0.1 mM of Luciferin was freshly added to the recording medium (low glucose DMEM powder (with L-glutamine) supplemented with 10 mM HEPES, 0.35 mg/ml sodium bicarbonate, 3.5 mg/ml D-(+)-glucose powder, 5% FBS, 0.1 mM NEAA, 100 U/ml penicillin and 100 mg/ml streptomycin). […] The 96-well plates were covered and bioluminescence was monitored by Synergy H1 Hybrid Multi-Mode Reader every 32 minutes. […] Bioluminescence was recorded every 10 minutes for 4-6 days. […] The first day's data was excluded from the analysis due to transient perturbations of luminescence after the medium change.

[2] = test system: Clock-deficient MDA MB231 cells; test: Bmal1::dluc rhythm in Clock knockout MDA MB231 cells; format: cell-based; conditions: Clock knockout MDA MB231, different concentrations
Protocol: as §1, with “cells.” for “cells. Two hour later, 0.1 mM of Luciferin was freshly added to the recording medium (low glucose DMEM powder (with L-glutamine) supplemented with 10 mM HEPES, 0.35 mg/ml sodium bicarbonate, 3.5 mg/ml D-(+)-glucose powder, 5% FBS, 0.1 mM NEAA, 100 U/ml penicillin and 100 mg/ml streptomycin).”
HEK 293T cells at 75-85% confluency were transfected with […] of pLV6-Bmal-luc plasmid, 9 ng of pCMV-AR8.2dvpr packaging vector and 1 ng of pCMV-VSVG envelope vector for 16 h. […] At 72-hour post-transduction, the circadian rhythms of cells monitored using Lumicycle.
We used Bmal1::dluc U2-OS and Per1::dluc NIH 3T3, and continuously monitored the bioluminescence to record circadian rhythm. […] The 96-well plates were covered and bioluminescence was monitored by Synergy H1 Hybrid Multi-Mode Reader every 32 minutes. […] Bioluminescence was recorded every 10 minutes for 4-6 days. […]

CC1(C)CCc2c(cc(OCC(=O)Nc3ccccc3C(N)=O)c3c(-c4ccccc4)cc(=O)oc23)O1 [CLK8, 2-[2-({12,12-dimethyl-4-oxo-6-phenyl-3,11-dioxatricyclo [8.4.0.0,2,7]tetradeca-1,5,7,9-tetraen-8-yl}oxy)acetamido] benzamide]
enhancement of amplitude ([1]; 10 μM, treated two days after synchronization): more than 50% | period of circadian rhythm ([1]; U2OS-Bmal1::dLuc): no period changes | amplitude of circadian rhythm ([1]; U2OS-Bmal1::dLuc, dose dependent): enhances the amplitude | phase of the first trough after treatment ([1]; treated two days after synchronization, vs DMSO control): advanced the phase of the first trough | CLK8-mediated increase in Bmal1-luc intensity [2]: abolished
